Earlier results on three molecules are cited in EP4778943A1, “LONG-ACTING PARATHYROID HORMONE RECEPTOR AGONIST FUSION PROTEIN AND USE THEREOF” (Shanghai Btd-Bio Technology Co., Ltd., priority 2023, dated 2025).

The conditions of data set [1]: continuous administration once a day for 6 months; cited from earlier work.
Another data set deals with mice. As to conditions: continuous infusion 80 µg/kg BW/day for 2 weeks; cited from earlier work.
The subject of data set [2] is TPTx (parathyroidectomy) rat model. The note with it: daily 1.2 nmol/kg (low dose) and 2.4 nmol/kg (high dose), after 4 weeks, versus model group; cited from earlier work.

Where no end group is shown, it is not given here.

Regarding `CC[C@H](C)[C@H](NC(=O)[C@H](CCC(=O)O)NC(=O)[C@H](CO)NC(=O)[C@@H](NC(=O)[C@@H](N)CO)C(C)C)C(=O)N[C@@H](CCC(N)=O)C(=O)N[C@@H](CC(C)C)C(=O)N[C@@H](CCSC)C(=O)N[C@@H](Cc1c[nH]cn1)C(=O)N[C@@H](CC(N)=O)C(=O)N[C@@H](CC(C)C)C(=O)NCC(=O)N[C@@H](CCCCN)C(=O)N[C@@H](Cc1c[nH]cn1)C(=O)N[C@@H](CC(C)C)C(=O)N[C@@H](CC(N)=O)C(=O)N[C@@H](CO)C(=O)N[C@@H](CCSC)C(=O)N[C@@H](CCC(=O)O)C(=O)N[C@@H](CCCNC(=N)N)C(=O)N[C@H](C(=O)N[C@@H](CCC(=O)O)C(=O)N[C@@H](Cc1c[nH]c2ccccc12)C(=O)N[C@@H](CC(C)C)C(=O)N[C@@H](CCCNC(=N)N)C(=O)N[C@@H](CCCCN)C(=O)N[C@@H](CCCCN)C(=O)N[C@@H](CC(C)C)C(=O)N[C@@H](CCC(N)=O)C(=O)N[C@@H](CC(=O)O)C(=O)N[C@H](C(=O)N[C@@H](Cc1c[nH]cn1)C(=O)N[C@@H](CC(N)=O)C(=O)N[C@@H](Cc1ccccc1)C(=O)O)C(C)C)C(C)C` [teriparatide], the “bone mineral density of L2-L4, increase” value in data set [1] is “about 5%”. Further, in the data set on mice, the bone mineral density result is listed as “significant decrease”. As to Abaloparatide, the bone mineral density entry in the data set on mice is recorded as “significant decrease”.

Regarding “TransCon PTH: long-acting PTH, generic name palopegteriparatide, trade name Yorvipath (SVSEIQLMHNLGKHLNSMERVEWLRKKLQDVHNF; also: PEG carrier attached via prodrug linker, site not given here; UniProt P01270 32-65, looked up, fragment)”, in data set [2], the bone mineral density entry is “significantly decreased”.
